Data published in patent US20070129383A1, “Substituted 2-amino-[1,2,4]triazolo[1,5-a]pyrimidine derivative and use thereof” (priority 2003, published 2007).

Tested on: MHC class I expression of T1 cell (human lymphoma line 174×CEM.)
Experiment: Effect on MHC class I expression of T1 cell (flow cytometry, MFI)
Type: cell-based
Settings: 72 h, concentration inhibiting MHC class I molecule expression level by 20%, T1 cells, three days incubation, read-out: EC20
Description: T1 cells (5.7×10^3 cells/200 μL/well) were incubated using a 96-well flat bottom microplate in RPMI1640 culture medium (Iwaki Glass Corporation) containing 10% bovine serum (hereinafter referred to as FBS; Iruvine Scientific) in the presence of a test compound of each concentration diluted from 400 μM by a common ratio of root 10 at 37° C. in an incubator containing 5% carbon dioxide concentration for three days. After incubation, cells were stained with fluoroisothiocyanate labeled mouse antihuman MHC class I monoclonal antibody (antibody produced by cell strain W6/32 (ATCC No, CRL1991). Mean fluorescence intensity (hereinafter referred to as MFI) of stained cells was measured with flow cytometry FACScan (BD), and this was assumed as MHC class I molecule expression level. Concentrations of the test compounds which inhibited the expression level of MHC class I molecule by 20% (EC20 value) were calculated from the following Expression (1), which are shown in Table 1. [formula]

| Structure (SMILES) | IC20 |
| --- | --- |
| CNc1nc2nccc(-c3cccs3)n2n1 [Example 001, N-methyl-7-thiophene-[1,2,4]triazolo[1,5-a]pyrimidin-2-ylamine] | 6 µM |
| CC(C)(C)OC(=O)Nc1nc2nccc(-c3ccccc3)n2n1 [Example 007] | 6.25 µM |
| COc1cccc(-c2ccnc3nc(NC(=O)OC(C)(C)C)nn23)c1 [Example 008] | 7.5 µM |
| CC(C)(C)OC(=O)Nc1nc2nccc(-c3ccc([N+](=O)[O-])cc3)n2n1 [Example 009] | 7.2 µM |
| CC(=O)C1CC(CC(=O)Nc2nc3nccc(-c4cccs4)n3n2)C1(C)C (stereo not drawn) [Example 013] | 8.2 µM |
| CC(C)=CC(=O)Nc1nc2nccc(-c3cccs3)n2n1 [Example 015] | 9.2 µM |
| O=C(CC1CCCC1)Nc1nc2nccc(-c3cccs3)n2n1 [Example 016] | 9.7 µM |
| O=C(/C=C\Sc1ccccc1)Nc1nc2nccc(-c3cccs3)n2n1 [Example 020] | 5.3 µM |
| O=C(CCS(=O)(=O)c1ccccc1)Nc1nc2nccc(-c3cccs3)n2n1 [Example 022, 3-benzenesulfonyl-N-(7-thiophene[1,2,4]triazolo[1,5-a]pyrimidin-2-yl)propionamide] | 8.2 µM |
| O=C(Nc1nc2nccc(-c3cccs3)n2n1)C1C2CC3C(C2=O)C31 (stereo not drawn) [Example 026] | 8.8 µM |
| CC1(C)CC(=O)C=C(C(=O)Nc2nc3nccc(-c4cccs4)n3n2)O1 [Example 028, 6,6-dimethyl-4-oxo-5,6-dihydro-4H-pyran-2-carboxylic acid N-(7-thiophen-2-yl-[1,2,4]triazolo[1,5-a]pyrimidin-2-yl)amide] | 7.7 µM |
| CC(C)(C)OC(=O)NC(CSCc1ccccc1)C(=O)Nc1nc2nccc(-c3cccs3)n2n1 (stereo not drawn) [Example 036] | 7.1 µM |
| CC(C)[C@H](N)C(=O)Nc1nc2nccc(-c3cccs3)n2n1 [Example 040] | 8.4 µM |
| CCC(NC(=O)OC(C)(C)C)C(=O)Nc1nc2nccc(-c3cccs3)n2n1 [Example 047, (S)-(1-(7-thiophen-2-yl-triazolo[1,5-a]-pyrimidin-2-ylcarbamoyl)propyl)carbamic acid tert-butyl ester] | 7.3 µM |
| COc1ccc(-c2ccnc3nc(NC(C)=O)nn23)cc1 [Example 052] | 6.8 µM |
| COc1cccc(-c2ccnc3nc(NC(=O)CCS(=O)(=O)c4ccccc4)nn23)c1 [Example 054, 3-benzenesulfonyl-N-(7-(3-methoxyphenyl)-[1,2,4]triazolo[1,5-a]pyrimidin-2-yl)propionamide] | 4 µM |
| O=C(CCS(=O)(=O)c1ccccc1)Nc1nc2nccc(-c3ccccc3)n2n1 [Example 055] | 1.6 µM |
| COc1ccc(-c2ccnc3nc(NC(=O)CCS(=O)(=O)c4ccccc4)nn23)cc1 [Example 056, 3-benzenesulfonyl-N-(7-(4-methoxyphenyl)-[1,2,4]triazolo[1,5-a]pyrimidin-2-yl)propionamide] | 0.74 µM |
